# Results as given in patent US20230357242A1, “COMPOUND AS AKT KINASE INHIBITOR” (CHIA TAI TIANQING PHARMACEUTICAL GROUP CO., LTD., priority 2020, published 2023).
# Read-outs that look alike come from different tables or passages of the source.
# Legend:
# AKT1 (S473) = molecular target: T1, AKT1 (S473) (Homo sapiens, UniProt P31749); test: Inhibitory effect on phosphorylation of LNcap cells AKT1 (S473); type: cell-based; conditions: 1 h incubation
# T1 construct: endogenous in cells; host or cells: LNcap cells
# Procedure: LNcap cells AKT1 (S473) growing at log phase were taken, digested with 1 mL of pancreatin for 3 min, and added with 4 mL of complete medium to terminate digestion. The cells were added to a centrifuge tube. 20 μL of cells were taken and counted, the required number of cells (mL) was taken and centrifuged at 1200 rpm for 5 min, and a plating medium (2% FBS+phenol-free red 1640 base medium+1% sodium pyruvate+1% glutamine) was added to adjust the cell density to about 1×10E6 cells/mL. The cells were plated (96 wells) at the above cell density (100 μL/well), and cultured in a cell incubator at 37° C., 5% CO2 overnight; the next day, according to the plate distribution, the corresponding compound was sprayed using a nanoliter pipettor and incubated for 1 h at 37° C. in a cell incubator containing 5% CO2; the supernatant was discarded, and the plate was added with 40 μL of lysis buffer (1×) containing blocking buffer and incubated by shaking at room temperature for 30 min. After the mixture was mixed, 16 μL of lysate was transferred to another 384-well small-volume white plate. The plate was added with 4 μL of pre-mixed antibody (v/v) in assay buffer, covered, centrifuged to mix well, and incubated overnight at room temperature. The 665 nm/620 nm signal value was detected using a PE Envision multi-functional microplate reader, and IC50 was calculated by four-parameter fitting.
# LNcap cells = test: Inhibitory effect on proliferation of LNcap cells (CCK-8, 72 h); type: cell-based; conditions: Homo sapiens
# Procedure: A dish of LNcap cells (human prostate cancer cells with PTEN deficiency) growing at log phase and in good conditions were taken and digested for 3 min by using 1 mL of pancreatin, then the mixture was added with 4 mL of complete culture medium to terminate digestion, and the cells were added to a centrifuge tube. 20 μL of cells were taken and counted, the required number of cells (mL) was pipetted and centrifuged at 1200 rpm for 5 min, the supernatant was discarded, and an appropriate amount of plating medium (RPMI medium+5% FBS+1% sodium pyruvate+1% glutamine) was added to adjust the cell density to 3×10^4 cells/mL. The cells were seeded on a 96-well plate at 100 μL/well using a multi-channel pipette and cultured in a cell incubator at 37° C., 5% CO2 and saturated humidity. After incubation overnight, compounds were loaded using a nanoliter pipettor, 2 duplicate wells were set for each concentration, and cells without compound were used as negative controls. After 72 h, CCK-8 was added at 10 μL/well for incubation for 4 h, then absorbance was measured at 450 nm with an Envision plate reader, and inhibition rate was calculated. Inhibition rate (%)=(mean value of negative control group−mean value of experimental group)/(mean value of negative control group−mean value of blank group)×100%. A dose-response curve was fitted by four-parameter analysis, with the logarithm of compound concentration as abscissa and inhibition rate as ordinate, so that IC50 was calculated.
# [1] = LNcap cells, CCK-8, read-out: LNcap cells IC50
# [2] = LNCaP, read-out: LNcap cells IC50
# T1 sequence (P31749 whole entry): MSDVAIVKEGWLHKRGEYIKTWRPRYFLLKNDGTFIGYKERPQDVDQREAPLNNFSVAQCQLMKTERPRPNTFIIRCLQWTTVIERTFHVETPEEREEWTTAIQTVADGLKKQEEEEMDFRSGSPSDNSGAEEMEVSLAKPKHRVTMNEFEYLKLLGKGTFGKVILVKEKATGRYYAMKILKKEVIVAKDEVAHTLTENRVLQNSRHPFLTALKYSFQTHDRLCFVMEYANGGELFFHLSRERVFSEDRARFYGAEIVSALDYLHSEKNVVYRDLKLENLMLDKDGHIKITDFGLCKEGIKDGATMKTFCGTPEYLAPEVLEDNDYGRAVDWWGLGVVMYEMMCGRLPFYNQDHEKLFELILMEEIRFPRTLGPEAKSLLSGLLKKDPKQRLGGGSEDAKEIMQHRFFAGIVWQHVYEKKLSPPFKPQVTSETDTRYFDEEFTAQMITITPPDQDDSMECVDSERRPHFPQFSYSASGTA
IC50 (AKT1 (S473)) [nM],IC50 (LNcap cells; [1]) [nM],SMILES,IC50 (LNcap cells; [2]) [nM]
34,16,CC#CC(=O)N1CCCC1c1cccc(-c2ccc3nc(-c4cccnc4N)n(-c4ccc(C5(N)CCC5)cc4)c3n2)c1 (centres unmarked) [Compound 1],
17,34,C=CC(=O)NCc1cccc(-c2ccc3nc(-c4cccnc4N)n(-c4ccc(C5(N)CCC5)cc4)c3n2)c1 [Compound 2],
,,CC(=O)N1CC[C@@H](N(C)c2cccc(-c3ccc4nc(-c5cccnc5N)n(-c5ccc(C6(N)CCC6)cc5)c4n3)c2)C1 [Compound 7],48
16,24,Nc1ncccc1-c1nc2ccc(-c3cccc(N4CCN5C(=O)CCC5C4)c3)nc2n1-c1ccc(C2(N)CCC2)cc1 (centres unmarked) [Compound 9],
19,12,Nc1ncccc1-c1nc2ccc(-c3cccc(N4CCN(C5COC5)CC4)c3)nc2n1-c1ccc(C2(N)CCC2)cc1 [Compound 11],
,,Nc1ncccc1-c1nc2ccc(-c3cccc(N4CC5(COC5)C4)c3)nc2n1-c1ccc(C2(N)CCC2)cc1 [Compound 13],20
19,8.7,CC(=O)N1CC2(C1)CN(c1cccc(-c3ccc4nc(-c5cccnc5N)n(-c5ccc(C6(N)CCC6)cc5)c4n3)c1)C2 [Compound 16],
17,12,CS(=O)(=O)N1CC2(CN(c3cccc(-c4ccc5nc(-c6cccnc6N)n(-c6ccc(C7(N)CCC7)cc6)c5n4)c3)C2)C1 [Compound 17],
,,Nc1ncccc1-c1nc2ccc(-c3cccc(N4CC5COCC5C4)c3)nc2n1-c1ccc(C2(N)CCC2)cc1 (centres unmarked) [Compound 18],18
,15,Nc1ncccc1-c1nc2ccc(-c3cccc(N4CCCS4(=O)=O)c3)nc2n1-c1ccc(C2(N)CCC2)cc1 [Compound 20],
23,3,Nc1ncccc1-c1nc2ccc(-c3cccc(N4CCC(N5CCCC5=O)CC4)c3)nc2n1-c1ccc(C2(N)CCC2)cc1 [Compound 21],
,,CC(=O)N(C)[C@@H]1CCN(c2cccc(-c3ccc4nc(-c5cccnc5N)n(-c5ccc(C6(N)CCC6)cc5)c4n3)c2)C1 [Compound 24],41
,14,CC(=O)N1CC2CN(c3cccc(-c4ccc5nc(-c6cccnc6N)n(-c6ccc(C7(N)CCC7)cc6)c5n4)c3)CC21 (centres unmarked) [Compound 26],
,20,CC(=O)N(C)C1CCCN(c2cccc(-c3ccc4nc(-c5cccnc5N)n(-c5ccc(C6(N)CCC6)cc5)c4n3)c2)C1 (centres unmarked) [Compound 27],
,46,CC(=O)N(C)CCN(C)c1cccc(-c2ccc3nc(-c4cccnc4N)n(-c4ccc(C5(N)CCC5)cc4)c3n2)c1 [Compound 29],
,,CC(=O)N(C)[C@H]1CCN(c2cccc(-c3ccc4nc(-c5cccnc5N)n(-c5ccc(C6(N)CCC6)cc5)c4n3)c2)C1 [Compound 31],28

IC50 (AKT1 (S473)) [nM],IC50 (LNcap cells; [1]) [nM],SMILES,IC50 (LNcap cells; [2]) [nM]
11,4.3,CN(C1CCN(c2cccc(-c3ccc4nc(-c5cccnc5N)n(-c5ccc(C6(N)CCC6)cc5)c4n3)c2F)CC1)S(C)(=O)=O [Compound 32],
17,11,CN1CC2(CC1=O)CN(c1cccc(-c3ccc4nc(-c5cccnc5N)n(-c5ccc(C6(N)CCC6)cc5)c4n3)c1)C2 [Compound 33],
25,2.9,Nc1ncccc1-c1nc2ccc(-c3cccc(N4CCC(N5CCC(F)(F)C5=O)CC4)c3)nc2n1-c1ccc(C2(N)CCC2)cc1 [Compound 34],
12,5,CC(=O)N1CCC2(CC1)CN(c1cccc(-c3ccc4nc(-c5cccnc5N)n(-c5ccc(C6(N)CCC6)cc5)c4n3)c1F)C2 [Compound 35],
,14,CC(=O)N1CC2(CCN(c3cccc(-c4ccc5nc(-c6cccnc6N)n(-c6ccc(C7(N)CCC7)cc6)c5n4)c3F)C2)C1 [Compound 36],
11,7.6,CC(=O)N1CCC2(C1)CN(c1cccc(-c3ccc4nc(-c5cccnc5N)n(-c5ccc(C6(N)CCC6)cc5)c4n3)c1F)C2 [Compound 37],
13,11,[2H]C1([2H])CC(N2CCCC2=O)CC([2H])([2H])N1c1cccc(-c2ccc3nc(-c4cccnc4N)n(-c4ccc(C5(N)CCC5)cc4)c3n2)c1F [Compound 38],
,19,CC(=O)N1C[C@@H]2CN(c3cccc(-c4ccc5nc(-c6cccnc6N)n(-c6ccc(C7(N)CCC7)cc6)c5n4)c3F)C[C@@H]2C1 [Compound 40],
41,10,Nc1ncccc1-c1nc2ccc(-c3cccc(N4CCC(N5CCCCS5(=O)=O)CC4)c3F)nc2n1-c1ccc(C2(N)CCC2)cc1 [Compound 41],
,21,Nc1ncccc1-c1nc2ccc(-c3cccc(N4CCC(N5CCCS5(=O)=O)CC4)c3F)nc2n1-c1ccc(C2(N)CCC2)cc1 [Compound 42],
,7.5,CC1CN(c2cccc(-c3ccc4nc(-c5cccnc5N)n(-c5ccc(C6(N)CCC6)cc5)c4n3)c2F)CCC1N1CCCC1=O (centres unmarked) [Compound 46],
,6.9,CC1CC(N2CCCC2=O)CCN1c1cccc(-c2ccc3nc(-c4cccnc4N)n(-c4ccc(C5(N)CCC5)cc4)c3n2)c1 (centres unmarked) [Compound 48],
,4,CN1CC2(CC1=O)CN(c1cccc(-c3ccc4nc(-c5cccnc5N)n(-c5ccc(C6(N)CCC6)cc5)c4n3)c1F)C2 [Compound 49],
,,[2H]C([2H])([2H])N(C(C)=O)C1CCN(c2cccc(-c3ccc4nc(-c5cccnc5N)n(-c5ccc(C6(N)CCC6)cc5)c4n3)c2)CC1 [Compound 54],2.2
7.1,2.1,[2H]C([2H])([2H])N(C(C)=O)C1CCN(c2cccc(-c3ccc4nc(-c5cccnc5N)n(-c5ccc(C6(N)CCC6)cc5)c4n3)c2F)CC1 [Compound 55],

SMILES,IC50 (AKT1 (S473)) [nM],IC50 (LNcap cells; [1]) [nM],IC50 (LNcap cells; [2]) [nM]
C=CC(=O)Nc1ccc(-c2ccc3nc(-c4cccnc4N)n(-c4ccc(C5(N)CCC5)cc4)c3n2)cc1 [Compound 3],20,,6.5
Nc1ncccc1-c1nc2ccc(-c3cccc(N4CC5(CCOCC5)C4)c3)nc2n1-c1ccc(C2(N)CCC2)cc1 [Compound 6],54,,15
CC1CN(C2COC2)CCN1c1cccc(-c2ccc3nc(-c4cccnc4N)n(-c4ccc(C5(N)CCC5)cc4)c3n2)c1 (centres unmarked) [Compound 10],47,,21
CC1COC(=O)N1C1CCN(c2cccc(-c3ccc4nc(-c5cccnc5N)n(-c5ccc(C6(N)CCC6)cc5)c4n3)c2)CC1 (centres unmarked) [Compound 39],42,,11
CC(=O)N(C)[C@@H]1C[C@H]2CC[C@@H](C1)N2c1cccc(-c2ccc3nc(-c4cccnc4N)n(-c4ccc(C5(N)CCC5)cc4)c3n2)c1 [Compound 43],,47,
CC(=O)N1CC2CC(C1)N2c1cccc(-c2ccc3nc(-c4cccnc4N)n(-c4ccc(C5(N)CCC5)cc4)c3n2)c1F [Compound 47],,81,
